# Laboratory results: patent US20080114055A1, “Thioxanthone Compounds to Reverse Weight Loss” (ZOLTAN LABORATORIES LLC, priority 2006, published 2008)
# Key:
# [1] = tested on: HL60 human leukemia tumor; assay: HL60 human leukemia tumor model: body, total and tumor weight; type: in vivo, mice; conditions: for Body weight: total minus tumor weight
# Text: Tumors were developed in a homozygous line of C.B.-171 cr scid/scid adult female mice kept at specified pathogen free (SPF) hygienic levels. Suspensions of HL-60 human leukemia cells (about 1,500,000 cells), or approximately 0.1 cm^3 volume of tumor tissue derived from HT-168 human melanoma, PC-3 human prostate adenocarcinoma, or T47D human breast carcinoma were implanted subcutaneously to develop the tumors. After 12-18 days when the tumor-bearing mice were first treated, the size of the tumors was in the 0.2-0.4 cm^3 range. CCcompound1 was dissolved in physiological (0.9%) saline (NaCl) and applied subcutaneously in 50 μl volume. Tumor volume was determined by calipers in three dimensions; this technique is well known to one having ordinary skill in the art. Tumor volume was calculated according to the generally accepted formula: V=a^2×b×π/6, where “a” and “b” mean the shortest and longest diameter, respectively, of the measured tumor. Tumor weight was calculated from tumor volume using a 0.7 (tumor weight) : 1 (tumor volume) ratio. Total weight and tumor volume/weight was measured regularly (at least every second day). In all tumor experiments, each treatment group consisted of five animals. Accordingly, all data are the average of five independent determinations (one determination for each animal). HL60 human tumors were developed in mice as described above. Treatments with CCcompound1 were started on day 18 after tumor implantation and conducted for the first five days and then for three days with two treatment-free days inserted between the two series of treatments. The results, shown in TABLE 2, indicate that between day 18 and 27 after tumor implantation, the leukemia tumor caused about 4-g loss in body weight.
# [2] = tested on: HT-168 human melanoma tumor; assay: HT-168 human melanoma model: body, total and tumor weight; type: in vivo, mice; conditions: for Body weight: total minus tumor weight
# Text: Tumors were developed in a homozygous line of C.B.-171 cr scid/scid adult female mice kept at specified pathogen free (SPF) hygienic levels. Suspensions of HL-60 human leukemia cells (about 1,500,000 cells), or approximately 0.1 cm^3 volume of tumor tissue derived from HT-168 human melanoma, PC-3 human prostate adenocarcinoma, or T47D human breast carcinoma were implanted subcutaneously to develop the tumors. After 12-18 days when the tumor-bearing mice were first treated, the size of the tumors was in the 0.2-0.4 cm^3 range. CCcompound1 was dissolved in physiological (0.9%) saline (NaCl) and applied subcutaneously in 50 μl volume. Tumor volume was determined by calipers in three dimensions; this technique is well known to one having ordinary skill in the art. Tumor volume was calculated according to the generally accepted formula: V=a^2×b×π/6, where “a” and “b” mean the shortest and longest diameter, respectively, of the measured tumor. Tumor weight was calculated from tumor volume using a 0.7 (tumor weight) : 1 (tumor volume) ratio. Total weight and tumor volume/weight was measured regularly (at least every second day). In all tumor experiments, each treatment group consisted of five animals. Accordingly, all data are the average of five independent determinations (one determination for each animal). HT-168 human tumors were developed in mice as described above. Treatments with CCcompound1 were started on day 17 after tumor implantation and conducted for the first five days and then for another five days with two treatment-free days inserted between the two series of treatments. The results, shown in TABLE 3, indicate that between day 17 and 30 after tumor implantation, the melanoma tumor caused a 2.7-g loss in body weight.
# Water solubility = type: physicochemical; conditions: at the concentration used in vivo
# T47D human breast tumor = assay: T47D human estrogen receptor positive breast cancer model: body, total and tumor weight; type: in vivo, mice; conditions: for Body weight: total minus tumor weight
# Text: Tumors were developed in a homozygous line of C.B.-171 cr scid/scid adult female mice kept at specified pathogen free (SPF) hygienic levels. Suspensions of HL-60 human leukemia cells (about 1,500,000 cells), or approximately 0.1 cm^3 volume of tumor tissue derived from HT-168 human melanoma, PC-3 human prostate adenocarcinoma, or T47D human breast carcinoma were implanted subcutaneously to develop the tumors. After 12-18 days when the tumor-bearing mice were first treated, the size of the tumors was in the 0.2-0.4 cm^3 range. CCcompound1 was dissolved in physiological (0.9%) saline (NaCl) and applied subcutaneously in 50 μl volume. Tumor volume was determined by calipers in three dimensions; this technique is well known to one having ordinary skill in the art. Tumor volume was calculated according to the generally accepted formula: V=a^2×b×π/6, where “a” and “b” mean the shortest and longest diameter, respectively, of the measured tumor. Tumor weight was calculated from tumor volume using a 0.7 (tumor weight) : 1 (tumor volume) ratio. Total weight and tumor volume/weight was measured regularly (at least every second day). In all tumor experiments, each treatment group consisted of five animals. Accordingly, all data are the average of five independent determinations (one determination for each animal). T47D human tumors were developed in mice as described above. Treatments with CCcompound1 were started on day 17 after tumor implantation and conducted for five days and then followed by an additional five days with 2 treatment-free days inserted between the 2 series of treatments. The results, shown in TABLE 5, indicate that between day 17 and 28 after tumor implantation, this breast tumor caused about a 2.5-g loss in body weight. […] Thus, in this human breast tumor model, CCcompound1 is a potent anti-cachectic agent and its effects on body weight are accompanied by significant anti-tumor effects.
# [3] = tested on: PC-3 human prostate tumor; assay: PC-3 human prostate cancer model: body, total and tumor weight; type: in vivo, mice; conditions: for Body weight: total minus tumor weight
# Text: Tumors were developed in a homozygous line of C.B.-171 cr scid/scid adult female mice kept at specified pathogen free (SPF) hygienic levels. Suspensions of HL-60 human leukemia cells (about 1,500,000 cells), or approximately 0.1 cm^3 volume of tumor tissue derived from HT-168 human melanoma, PC-3 human prostate adenocarcinoma, or T47D human breast carcinoma were implanted subcutaneously to develop the tumors. After 12-18 days when the tumor-bearing mice were first treated, the size of the tumors was in the 0.2-0.4 cm^3 range. CCcompound1 was dissolved in physiological (0.9%) saline (NaCl) and applied subcutaneously in 50 μl volume. Tumor volume was determined by calipers in three dimensions; this technique is well known to one having ordinary skill in the art. Tumor volume was calculated according to the generally accepted formula: V=a^2×b×π/6, where “a” and “b” mean the shortest and longest diameter, respectively, of the measured tumor. Tumor weight was calculated from tumor volume using a 0.7 (tumor weight) : 1 (tumor volume) ratio. Total weight and tumor volume/weight was measured regularly (at least every second day). In all tumor experiments, each treatment group consisted of five animals. Accordingly, all data are the average of five independent determinations (one determination for each animal). PC-3 human tumors were developed in mice as described above. Treatments with CCcompound1 were started on day 12 after tumor implantation and conducted for five days and then for another three days with two treatment-free days inserted between the two series of treatments. The results, shown in TABLE 4, indicate that between day 12 and 21 after tumor implantation, the prostate tumor caused about 5.7-g loss in body weight which corresponds to about 22% reduction.
# [4] = 0.5 mg/kg s.c., day 18 (treatment start)
# [5] = 1.0 mg/kg s.c., day 18 (treatment start)
# [6] = 2.0 mg/kg s.c., day 18 (treatment start)
# [7] = 1.0 mg/kg s.c., day 17 (treatment start)
# [8] = 1.0 mg/kg s.c., day 17 after tumor transplantation (treatment start)
# [9] = 2.0 mg/kg s.c., day 17 (treatment start)
# [10] = 4.0 mg/kg s.c., day 17 (treatment start)
# [11] = 1.0 mg/kg s.c., day 12 (treatment start)
# [12] = 2.0 mg/kg s.c., day 12 (treatment start)
# [13] = 4.0 mg/kg s.c., day 12 (treatment start)
compound,measurement,setting,value
"Cc1c(OCC(O)C[N+](C)(C)C)cc2c(=O)c3ccccc3sc2c1C.[Cl-] (centres unmarked) [CCcompound1, [3-(3,4-Dimethyl-9-oxo-9H-thioxanthen-2-yloxy)-2-hydroxypropyl]trimethyl-ammonium chloride]",Tumor weight,[1]; [4],0.7 g
same,Body weight,[1]; [4],25.5 g
same,Total weight,"[1]; 0.5 mg/kg s.c., day 18 after tumor transplantation (treatment start)",26.2 g
same,Tumor weight,"[1]; 0.5 mg/kg s.c., day 27",2.8 g
same,Body weight,"[1]; 0.5 mg/kg s.c., day 27",24.0 g
same,Total weight,"[1]; 0.5 mg/kg s.c., day 27 after tumor transplantation",26.8 g
same,Total weight,[1]; [5],26.2 g
same,Tumor weight,[1]; [5],0.4 g
same,Body weight,[1]; [5],25.8 g
same,Total weight,"[1]; 1.0 mg/kg s.c., day 27",30.3 g
same,Tumor weight,"[1]; 1.0 mg/kg s.c., day 27",1.9 g
same,Body weight,"[1]; 1.0 mg/kg s.c., day 27",28.4 g
same,Total weight,[1]; [6],27.0 g
same,Tumor weight,[1]; [6],0.5 g
same,Body weight,[1]; [6],26.5 g
same,Total weight,"[1]; 2.0 mg/kg s.c., day 27",30.6 g
same,Tumor weight,"[1]; 2.0 mg/kg s.c., day 27",1.9 g
same,Body weight,"[1]; 2.0 mg/kg s.c., day 27",28.7 g
same,Effect on body weight loss,"[1]; 0.5-mg/kg, between day 18 and 27",reduced body weight loss
same,Effect on body weight,"[1]; 1-mg/kg, between day 18 and 27",gained weight
same,Effect on body weight,"[1]; 2-mg/kg, between day 18 and 27",gained weight
same,Reduction of tumor weight,"[1]; higher amounts of CCcompound1, day 27",about 45%
same,Tumor weight,[2]; [7],0.2 g
same,Body weight,[2]; [7],23.8 g
same,Total weight,[2]; [8],24.0 g
same,Tumor weight,"[2]; 1.0 mg/kg s.c., day 30",2.1 g
same,Body weight,"[2]; 1.0 mg/kg s.c., day 30",25.5 g
same,Total weight,"[2]; 1.0 mg/kg s.c., day 30 after tumor transplantation",27.6 g
same,Total weight,[2]; [9],23.1 g
same,Tumor weight,[2]; [9],0.2 g
same,Body weight,[2]; [9],22.9 g
same,Total weight,"[2]; 2.0 mg/kg s.c., day 30",25.8 g
same,Tumor weight,"[2]; 2.0 mg/kg s.c., day 30",1.8 g
same,Body weight,"[2]; 2.0 mg/kg s.c., day 30",24.0 g
same,Total weight,[2]; [10],23.8 g
same,Tumor weight,[2]; [10],0.2 g
same,Body weight,[2]; [10],23.6 g
same,Total weight,"[2]; 4.0 mg/kg s.c., day 30",29.6 g
same,Tumor weight,"[2]; 4.0 mg/kg s.c., day 30",1.2 g
same,Body weight,"[2]; 4.0 mg/kg s.c., day 30",28.4 g
same,Effect on body weight loss,"[2]; 1-mg/kg, between day 17 and 30",sufficient to reverse body weight loss
same,Body weight gain,"[2]; 4-mg/kg, between day 17 and 30",~5 g
same,Reduction of tumor weight,"[2]; 4-mg/kg, day 30",more than 50%
same,Water solubility,Water solubility,fully water-soluble
same,Tumor weight,T47D human breast tumor; [7],0.2 g
same,Body weight,T47D human breast tumor; [7],26.3 g
same,Total weight,T47D human breast tumor; [8],26.5 g
same,Tumor weight,"T47D human breast tumor; 1.0 mg/kg s.c., day 28",1.6 g
same,Body weight,"T47D human breast tumor; 1.0 mg/kg s.c., day 28",27.7 g
same,Total weight,"T47D human breast tumor; 1.0 mg/kg s.c., day 28 after tumor transplantation",29.3 g
same,Total weight,T47D human breast tumor; [9],26.9 g
same,Tumor weight,T47D human breast tumor; [9],0.2 g
same,Body weight,T47D human breast tumor; [9],26.7 g
same,Total weight,"T47D human breast tumor; 2.0 mg/kg s.c., day 28",28.7 g
same,Tumor weight,"T47D human breast tumor; 2.0 mg/kg s.c., day 28",1.5 g
same,Body weight,"T47D human breast tumor; 2.0 mg/kg s.c., day 28",27.2 g
same,Total weight,T47D human breast tumor; [10],27.0 g
same,Tumor weight,T47D human breast tumor; [10],0.2 g
same,Body weight,T47D human breast tumor; [10],26.8 g
same,Total weight,"T47D human breast tumor; 4.0 mg/kg s.c., day 28",30.9 g
same,Tumor weight,"T47D human breast tumor; 4.0 mg/kg s.c., day 28",1.2 g
same,Body weight,"T47D human breast tumor; 4.0 mg/kg s.c., day 28",29.7 g
same,Effect on body weight loss,"T47D human breast tumor; 1-mg/kg, between day 17 and 28",fully reversed body weight loss
same,Body weight gain,"T47D human breast tumor; 4-mg/kg, between day 17 and 28",3.1 g
same,Reduction of tumor weight,"T47D human breast tumor; 4-mg/kg, day 28",about 40%
same,Tumor weight,[3]; [11],0.4 g
same,Body weight,[3]; [11],25.9 g
same,Total weight,"[3]; 1.0 mg/kg s.c., day 12 after tumor transplantation (treatment start)",26.3 g
same,Tumor weight,"[3]; 1.0 mg/kg s.c., day 21",2.2 g
same,Body weight,"[3]; 1.0 mg/kg s.c., day 21",23.1 g
same,Total weight,"[3]; 1.0 mg/kg s.c., day 21 after tumor transplantation",25.3 g
same,Total weight,[3]; [12],26.1 g
same,Tumor weight,[3]; [12],0.4 g
same,Body weight,[3]; [12],25.7 g
same,Total weight,"[3]; 2.0 mg/kg s.c., day 21",28.4 g
same,Tumor weight,"[3]; 2.0 mg/kg s.c., day 21",1.9 g
same,Body weight,"[3]; 2.0 mg/kg s.c., day 21",26.5 g
same,Total weight,[3]; [13],26.9 g
same,Tumor weight,[3]; [13],0.2 g
same,Body weight,[3]; [13],26.7 g
same,Total weight,"[3]; 4.0 mg/kg s.c., day 21",32.4 g
same,Tumor weight,"[3]; 4.0 mg/kg s.c., day 21",1.4 g
same,Body weight,"[3]; 4.0 mg/kg s.c., day 21",31.0 g
same,Effect on body weight loss,"[3]; 1-mg/kg, between day 12 and 21",only partially prevented body weight loss
same,Body weight gain,"[3]; 4-mg/kg, between day 12 and 21",4.3 g
same,Reduction of tumor weight,"[3]; 4-mg/kg, day 21",about 48%
